In US20250380696A1, “METHOD FOR CONTROLLING UNDESIRED PLANTS AND PROMOTING GROWTH OF USEFUL PLANTS” (ISHIHARA SANGYO KAISHA, LTD., priority 2022, published 2025):

Legend:
Assay type in all cases: in vivo
[1] = test system: Italian ryegrass (Lolium multiflorum); assay: (9) Herbicidal effect test, pot, spray at 3.2 to 4.0 leaf stage; conditions: 6th day after spraying
Text: (§1) [formula] • X: growth inhibition rate when treated with α (g/ha) of compound A, • Y: growth inhibition rate when treated with β (g/ha) of compound B, • E: growth inhibition rate expected when treated with α (g/ha) of compound A and β (g/ha) of compound B (expected value).
(§2) Upland soil was put in a 1/1,000,000 hectare pot, and seeds of Italian ryegrass (Lolium multiflorum) were sown. When Italian ryegrass reached 3.2 to 4.0 leaf stage, a water-based suspension containing tiafenacil as the active ingredient, prepared by a conventional method for preparing a water-based suspension, and a wettable powder containing tri-allate as the active ingredient, prepared by a conventional method for preparing a wettable powder, an emulsifiable concentrate containing pethoxamid as the active ingredient (tradename: Successor 600, manufactured by Stähler Suisse SA) or an emulsifiable concentrate containing dimethenamid-P as the active ingredient (tradename: Fieldstar P emulsifiable concentrate, manufactured by BASF) were diluted with water (in an amount corresponding to 200 liter per hectare) containing 0.5 vol % of an agricultural spreader (tradename: Destiny HC, manufactured by Winfield Solutions, LLC.) and sprayed by a small spray gun (model: W-101-132G, manufactured by ANEST IWATA Corporation). On the 6th day after spraying, the state of growth of the Italian ryegrass was visually observed, and the growth inhibition rate (%) was obtained in accordance with the evaluation standards described in the above (1) herbicidal effect test, and the results are shown in Table 9. Further, the expected value of the growth inhibition rate (%) was calculated in accordance with the Colby's formula described in the above (1) herbicidal effect test, and the results are also shown in Table 9.

[2] = test system: horseweed (Conyza canadensis); assay: (15) Herbicidal effect test, pot, spray at diameter of 13 to 19 cm; conditions: 3rd day after spraying
Text: as §1
Upland soil was put in a 1/1,000,000 hectare pot, and seeds of horseweed (Conyza canadensis) were sown. When the horseweed reached a diameter of 13 to 19 cm, a water-based suspension containing tiafenacil as the active ingredient, prepared by a conventional method for preparing a water-based suspension, and a wettable powder containing tri-allate as the active ingredient, prepared by a conventional method for preparing a wettable powder, an emulsifiable concentrate containing pethoxamid as the active ingredient (tradename: Successor 600, manufactured by Stähler Suisse SA) or an emulsifiable concentrate containing dimethenamid-P as the active ingredient (tradename: Fieldstar P emulsifiable concentrate, manufactured by BASF) were diluted with water (in an amount corresponding to 200 liter per hectare) containing 0.5 vol % of an agricultural spreader (tradename: Destiny HC, manufactured by Winfield Solutions, LLC.) and sprayed by a small spray gun (model: W-101-132G, manufactured by ANEST IWATA Corporation). On the 3rd day after spraying, the state of growth of the horseweed was visually observed, and the growth inhibition rate (%) was obtained in accordance with the evaluation standards described in the above (1) herbicidal effect test, and the results are shown in Table 15. Further, the expected value of the growth inhibition rate (%) was calculated in accordance with the Colby's formula described in the above (1) herbicidal effect test, and the results are also shown in Table 15.

[3] = test system: goosegrass (Eleusine indica); assay: (11) Herbicidal effect test, pot, spray at 7.0 to 8.3 leaf stage; conditions: 3rd day after spraying
Text: as §1
as §2, with “goosegrass (Eleusine indica)” for “Italian ryegrass (Lolium multiflorum)”, “goosegrass” for “Italian ryegrass”, “7.0” for “3.2”, “8.3” for “4.0”, “3rd” for “6th”, “11.” for “9.”

[4] = test system: wheat (cultivar: Norin 61); assay: (21) Plant growth promotion effect test (wheat), Italian ryegrass sown; conditions: 22nd day after the sowing, above-ground part
Text: Upland soil was put in a 1/1,000,000 hectare pot, and seeds of Italian ryegrass (Lolium multiflorum) were sown. When the Italian ryegrass reached 3.3 to 3.8 leaf stage, a water-based suspension containing tiafenacil as the active ingredient, prepared by a conventional method for preparing a water-based suspension, and a wettable powder containing metribuzin as the active ingredient (tradename: SENCOR wettable powder, manufactured by Bayer Crop Science) or water dispersible granules containing pyroxasulfone as the active ingredient (tradename: Sakura, manufactured by Bayer Crop Science) were diluted with water (in an amount corresponding to 200 liter per hectare) containing 0.5 vol % of an agricultural spreader (tradename: Destiny HC, manufactured by Winfield Solutions, LLC.) and sprayed by a small spray gun (model: W-101-132G, manufactured by ANEST IWATA Corporation). Seeds of wheat (cultivar: Norin 61, manufactured by Asahi Noen Seed Co., Ltd.) were sown in the pot after spraying. On the 22nd day after the sowing, the above-ground part of the wheat was reaped, and its weight was measured to obtain the raw weight.

Compound: COC[C@H](C)N(C(=O)CCl)c1c(C)csc1C [dimethenamid-P]
- Growth inhibition rate (%) Measured value ([1]; Dose 500 g/ha): 33%
- Growth inhibition rate (%) Measured value ([1]; Dose 625 g/ha): 40%
- Growth inhibition rate (%) Measured value ([2]; Dose 60 g/ha): 0%
- Growth inhibition rate (%) Measured value ([2]; Dose 375 g/ha): 0%
- Growth inhibition rate (%) Measured value ([2]; Dose 750 g/ha): 0%
- Growth inhibition rate (%) Measured value ([3]; Dose 60 g/ha): 0%
- Growth inhibition rate (%) Measured value ([3]; Dose 375 g/ha): 0%
- Growth inhibition rate (%) Measured value ([3]; Dose 750 g/ha): 0%

Compound: CSc1nnc(C(C)(C)C)c(=O)n1N [metribuzin]
- Raw weight (g) of wheat ([4]; Dose 150 g/ha): 2.5 g

Compound: CCOCCN(C(=O)CCl)C(=C(C)C)c1ccccc1 [pethoxamid]
- Growth inhibition rate (%) Measured value ([1]; Dose 312.5 g/ha): 5%
- Growth inhibition rate (%) Measured value ([1]; Dose 437.5 g/ha): 3%
- Growth inhibition rate (%) Measured value ([1]; Dose 625 g/ha): 8%
- Growth inhibition rate (%) Measured value ([2]; Dose 93.8 g/ha): 0%
- Growth inhibition rate (%) Measured value ([2]; Dose 375 g/ha): 0%
- Growth inhibition rate (%) Measured value ([2]; Dose 750 g/ha): 0%
- Growth inhibition rate (%) Measured value ([3]; Dose 93.8 g/ha): 0%
- Growth inhibition rate (%) Measured value ([3]; Dose 375 g/ha): 0%
- Growth inhibition rate (%) Measured value ([3]; Dose 750 g/ha): 0%

Compound: Cn1nc(C(F)(F)F)c(CS(=O)(=O)C2=NOC(C)(C)C2)c1OC(F)F [pyroxasulfone]
- Raw weight (g) of wheat ([4]; Dose 37.5 g/ha): 1.2 g

Compound: COC(=O)CCNC(=O)C(C)Sc1cc(-n2c(=O)cc(C(F)(F)F)n(C)c2=O)c(F)cc1Cl (stereo not drawn) [tiafenacil]
- Growth inhibition rate (%) Measured value ([1]; Dose 6.25 g/ha): 30%
- Raw weight (g) of wheat ([4]; Dose 3 g/ha): 2.3 g
- Growth inhibition rate (%) Measured value ([2]; Dose 6.25 g/ha): 17%
- Growth inhibition rate (%) Measured value ([3]; Dose 6.25 g/ha): 77%

Compound: CC(C)N(C(=O)SCC(Cl)=C(Cl)Cl)C(C)C [tri-allate]
- inhibition at 937.5 g/ha ([1]; Lolium multiflorum, Dose 937.5 g/ha, read-out: Growth inhibition rate (%) Measured value): 3%
- inhibition at 75 g/ha ([2]; Erigeron canadensis, Dose 75 g/ha, read-out: Growth inhibition rate (%) Measured value): 0%
- inhibition at 625 g/ha ([2]; Erigeron canadensis, Dose 625 g/ha, read-out: Growth inhibition rate (%) Measured value): 5%
- inhibition at 1250 g/ha ([2]; Erigeron canadensis, Dose 1250 g/ha, read-out: Growth inhibition rate (%) Measured value): 3%
- inhibition at 75 g/ha ([3]; Eleusine indica, Dose 75 g/ha, read-out: Growth inhibition rate (%) Measured value): 0%
- inhibition at 625 g/ha ([3]; Eleusine indica, Dose 625 g/ha, read-out: Growth inhibition rate (%) Measured value): 0%
- inhibition at 1250 g/ha ([3]; Eleusine indica, Dose 1250 g/ha, read-out: Growth inhibition rate (%) Measured value): 5%
